The values that follow come from article PMC7508416 (Chemical research in toxicology, 2020).

For series [1] the following is noted: cited from earlier work.
The conditions of series [2]: human liver microsomes; cited from earlier work. (In general: Liver microsomes are vesicles of endoplasmic reticulum, rich in cytochrome P450 enzymes.)
The conditions of series [3]: for % Depletion: after 60 min (Eq. 1).
The conditions of series [4]: 2 μM; herring gull liver microsomes; cited from earlier work.
For series [5] the following is noted: for Depletion rate, slope, first-order kinetics / Depletion rate, slope, zero-order kinetics: linear regression.
The conditions of series [6]: polar bear liver microsomes; cited from earlier work.
The conditions of series [7]: cited from earlier work. This is another data set of the same source.

Where two headings read alike, the source gives them in different places. Marks after values point to notes of the source that are not given here.

For the compound `O=P(O)(Oc1ccccc1)Oc1ccccc1` [DPHP, diphenyl phosphate], in series [1], the “Geometric mean urinary concentration” value is on record as “around 10 nM”.
Consider `O=P(Oc1ccccc1)(Oc1ccccc1)Oc1ccccc1` [TPHP, triphenyl phosphate, reference compound], for which the “Percentage of DPHP formation following incubation” value was 22% in series [2] and 97% in series [6]. For the same compound, the “Mass of parent lower in the +S9 treatment compared to the unprocessed spike” value in series [3] (1 μM) is on record as 69–77%; in series [3] (10 μM), 32–37%. Besides, the “Percentage of Initial Parent Administration (Mean ± Std Dev): parent compound” value in series [3] (1 μM, Abiotic Control) amounted to 94 ± 7%; in series [3] (1 μM, Heat-inactivated s9), 88 ± 2%; in series [3] (1 μM, s9), 31 ± 2%; in series [3] (1 μM, s9 & glucuronidase), 31 ± 3%; in series [3] (1 μM, s9 & sulfatase) it was 23 ± 1%; in series [3] (1 μM, unprocessed spike) it was 100 ± 5%. The “Percentage of Initial Parent Administration (Mean ± Std Dev): parent compound” value is reported as 95 ± 1% in series [3] (10 μM, Abiotic Control); 94 ± 1% in series [3] (10 μM, Heat-inactivated s9); 68 ± 1% in series [3] (10 μM, s9); 67 ± 1% in series [3] (10 μM, s9 & glucuronidase); 63 ± 0.2% in series [3] (10 μM, s9 & sulfatase); 100 ± 1% in series [3] (10 μM, unprocessed spike). Further, the “% Depletion” value in series [3] (1 μM, Abiotic Control) was found to be 6%; in series [3] (1 μM, Heat-inactivated s9) it was 12%; in series [3] (1 μM, s9 & glucuronidase), 69%; in series [3] (1 μM, s9 & sulfatase) it was 77%; in series [3] (1 μM, s9), 69%; in series [3] (10 μM, Abiotic Control), 5%. The “% Depletion” value in series [3] (10 μM, Heat-inactivated s9) was found to be 6%; in series [3] (10 μM, s9 & glucuronidase) it was 33%; in series [3] (10 μM, s9 & sulfatase) it was 37%; in series [3] (10 μM, s9), 32%. In addition, the “Percentage of Initial Parent Administration (Mean ± Std Dev): Total” value in series [3] (1 μM, unprocessed spike, parents plus quantified metabolites) stood at 100 ± 5%. Also, the “Initial parent depleted in the abiotic control group” value in series [3] (both doses) was 5–6%. Also, the Depletion rate in series [4] was 22 pmol/min/mg; in series [5] (1 μM dose) it was 24 pmol/min/mg. Moreover, the entries for the “Depletion rate, slope, first-order kinetics” value in series [5] (1 μM dose) and in series [5] (10 μM dose) were −0.032 ^* ln[nmol]/min/mg protein and −0.0030 ln[nmol]/min/mg protein, respectively. In addition, the “Depletion rate, slope, zero-order kinetics” value in series [5] (1 μM dose) is −0.024 nmol/min/mg protein; in series [5] (10 μM dose), −0.032 nmol/min/mg protein. The “OH-TPHP glucuronide conjugates, share of the initial TPHP treatment” value in series [7] is on record as 65%.
